What was measured:
BRM = BRM (Homo sapiens, UniProt P51531); assay: ATPase catalytic activity assay of BRM (ADP-Glo); format: biochemical; settings: for IC50: read-out: BRM IC50 (μM)*
Outline: (§1)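 Luminescent ADP-Glo readout of ADP generated by ATP hydrolysis. Post-reaction: ATP depletion reagent, RT 40 min; detection reagent converting ADP→ATP, RT 60 min; luminescence read.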

BRG-1 = BRG-1 (Homo sapiens, UniProt P51532); assay: ATPase catalytic activity assay of BRG-1 (ADP-Glo); format: biochemical; settings: ATPase catalytic activity, ADP-Glo; for IC50: read-out: BRG1 IC50 (μM)*; for Emax: read-out: BRG1 Max % Inhibition
Outline: as §1

Chain of BRM (P51531 whole entry): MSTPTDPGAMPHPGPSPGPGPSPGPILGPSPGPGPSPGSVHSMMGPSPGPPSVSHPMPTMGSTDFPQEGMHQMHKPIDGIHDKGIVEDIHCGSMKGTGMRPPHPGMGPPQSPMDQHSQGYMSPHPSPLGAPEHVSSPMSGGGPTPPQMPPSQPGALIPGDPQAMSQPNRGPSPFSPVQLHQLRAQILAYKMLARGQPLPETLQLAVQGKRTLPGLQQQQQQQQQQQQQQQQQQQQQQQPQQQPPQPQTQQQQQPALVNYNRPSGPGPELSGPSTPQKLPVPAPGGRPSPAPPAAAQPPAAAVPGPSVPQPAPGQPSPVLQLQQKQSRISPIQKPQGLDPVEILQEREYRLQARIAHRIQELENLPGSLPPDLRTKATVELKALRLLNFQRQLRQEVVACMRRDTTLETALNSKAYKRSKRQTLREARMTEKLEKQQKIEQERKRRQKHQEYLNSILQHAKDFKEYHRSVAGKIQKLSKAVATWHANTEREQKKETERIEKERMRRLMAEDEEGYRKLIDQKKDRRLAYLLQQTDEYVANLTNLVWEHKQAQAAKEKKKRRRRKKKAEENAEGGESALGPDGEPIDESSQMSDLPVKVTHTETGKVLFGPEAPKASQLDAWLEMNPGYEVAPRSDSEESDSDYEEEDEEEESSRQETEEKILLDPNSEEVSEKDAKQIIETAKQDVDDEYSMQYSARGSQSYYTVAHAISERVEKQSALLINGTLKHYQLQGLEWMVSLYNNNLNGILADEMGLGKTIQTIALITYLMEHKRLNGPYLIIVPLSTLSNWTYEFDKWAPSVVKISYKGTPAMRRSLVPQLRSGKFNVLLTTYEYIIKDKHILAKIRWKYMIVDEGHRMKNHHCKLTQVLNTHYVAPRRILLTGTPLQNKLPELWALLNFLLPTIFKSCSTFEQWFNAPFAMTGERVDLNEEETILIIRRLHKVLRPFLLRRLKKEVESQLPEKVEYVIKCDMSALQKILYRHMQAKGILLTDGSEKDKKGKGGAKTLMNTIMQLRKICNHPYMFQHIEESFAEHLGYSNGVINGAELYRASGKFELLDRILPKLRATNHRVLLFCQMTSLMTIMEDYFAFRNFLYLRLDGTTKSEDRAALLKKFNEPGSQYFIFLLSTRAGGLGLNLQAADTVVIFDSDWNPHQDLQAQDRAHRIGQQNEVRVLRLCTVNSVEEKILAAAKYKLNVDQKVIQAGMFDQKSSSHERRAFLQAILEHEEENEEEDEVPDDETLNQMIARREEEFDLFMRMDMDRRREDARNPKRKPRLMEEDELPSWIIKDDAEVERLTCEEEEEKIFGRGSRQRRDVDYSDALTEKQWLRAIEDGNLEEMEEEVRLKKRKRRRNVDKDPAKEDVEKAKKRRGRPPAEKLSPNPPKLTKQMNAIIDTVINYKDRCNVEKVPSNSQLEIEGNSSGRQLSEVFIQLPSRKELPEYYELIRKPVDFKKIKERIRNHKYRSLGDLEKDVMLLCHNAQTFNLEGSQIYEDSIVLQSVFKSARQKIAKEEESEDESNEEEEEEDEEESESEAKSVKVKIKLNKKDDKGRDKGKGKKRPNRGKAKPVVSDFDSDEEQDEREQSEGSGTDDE
Chain of BRG-1 (P51532 whole entry): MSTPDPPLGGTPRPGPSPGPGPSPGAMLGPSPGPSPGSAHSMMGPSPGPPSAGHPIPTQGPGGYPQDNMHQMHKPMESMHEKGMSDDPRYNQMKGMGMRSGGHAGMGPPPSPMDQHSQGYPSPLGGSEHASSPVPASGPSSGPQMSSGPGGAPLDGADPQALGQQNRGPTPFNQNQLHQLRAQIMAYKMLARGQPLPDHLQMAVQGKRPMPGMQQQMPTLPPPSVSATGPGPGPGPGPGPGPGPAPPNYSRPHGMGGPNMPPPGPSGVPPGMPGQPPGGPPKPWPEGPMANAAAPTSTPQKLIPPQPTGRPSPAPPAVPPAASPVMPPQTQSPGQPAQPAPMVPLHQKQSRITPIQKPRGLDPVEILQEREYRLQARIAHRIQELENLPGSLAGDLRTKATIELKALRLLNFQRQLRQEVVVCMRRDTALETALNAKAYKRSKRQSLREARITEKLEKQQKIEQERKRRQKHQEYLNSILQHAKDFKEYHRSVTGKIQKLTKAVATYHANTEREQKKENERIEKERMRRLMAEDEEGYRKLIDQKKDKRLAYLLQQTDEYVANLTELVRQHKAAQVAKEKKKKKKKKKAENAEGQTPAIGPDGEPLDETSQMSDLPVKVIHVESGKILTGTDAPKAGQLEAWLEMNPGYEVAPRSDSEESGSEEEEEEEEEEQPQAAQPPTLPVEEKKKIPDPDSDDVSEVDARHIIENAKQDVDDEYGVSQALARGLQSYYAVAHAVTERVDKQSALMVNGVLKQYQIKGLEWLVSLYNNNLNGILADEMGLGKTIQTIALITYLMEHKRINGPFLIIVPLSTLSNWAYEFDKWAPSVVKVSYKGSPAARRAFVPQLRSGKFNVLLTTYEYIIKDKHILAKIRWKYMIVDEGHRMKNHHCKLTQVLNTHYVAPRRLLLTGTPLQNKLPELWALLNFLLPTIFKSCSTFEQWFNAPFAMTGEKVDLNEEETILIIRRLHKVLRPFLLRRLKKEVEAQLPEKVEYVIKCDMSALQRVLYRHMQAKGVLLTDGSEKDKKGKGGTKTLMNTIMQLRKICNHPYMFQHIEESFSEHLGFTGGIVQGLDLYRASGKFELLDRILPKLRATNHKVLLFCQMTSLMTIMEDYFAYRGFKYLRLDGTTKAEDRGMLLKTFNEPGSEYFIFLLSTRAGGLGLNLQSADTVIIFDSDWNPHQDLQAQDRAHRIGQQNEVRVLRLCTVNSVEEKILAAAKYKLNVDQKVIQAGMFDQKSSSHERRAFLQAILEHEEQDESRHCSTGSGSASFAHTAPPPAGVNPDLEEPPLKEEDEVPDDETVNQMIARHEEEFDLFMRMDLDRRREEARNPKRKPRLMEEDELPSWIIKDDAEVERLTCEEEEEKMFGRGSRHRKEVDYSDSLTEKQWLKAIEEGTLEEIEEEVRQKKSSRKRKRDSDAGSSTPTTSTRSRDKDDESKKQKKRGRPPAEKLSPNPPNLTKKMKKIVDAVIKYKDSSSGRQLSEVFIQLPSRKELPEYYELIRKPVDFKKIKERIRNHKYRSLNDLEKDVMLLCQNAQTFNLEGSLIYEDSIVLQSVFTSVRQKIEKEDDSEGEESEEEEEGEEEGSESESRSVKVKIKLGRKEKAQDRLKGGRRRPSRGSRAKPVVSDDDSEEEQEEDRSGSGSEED

SMILES	BRM Max % Inhibition (BRM) [%]	IC50 (BRM) [µM]	IC50 (BRG-1) [µM]	Emax (BRG-1) [%]
CC(C)S(=O)(=O)c1cccc(C(=O)NCC(=O)Nc2nc(-c3cc(C#N)cc(-c4ccc(CN)cc4)c3)cs2)c1 [Compound 33, N-[2-[[4-[3-[4-(aminomethyl)phenyl]-5-cyano-phenyl]thiazol-2-yl]amino]-2-oxo-ethyl]-3-isopropylsulfonyl-benzamide]	>70	> 5	> 5	> 80
CC(C)S(=O)(=O)c1cccc(C(=O)NCC(=O)Nc2nc(-c3cccc(-c4ccnc(CN(C)C)c4)c3)cs2)c1 [Compound 45, N-(2-((4-(3-(2-((dimethylamino)methyl)pyridin-4-yl)phenyl)thiazol-2-yl)amino)-2-oxoethyl)-3-(isopropylsulfonyl)benzamide]	>95	< 0.1	1 to 5	
COc1cc(-c2cccc(-c3csc(NC(=O)CNC(=O)c4cccc(C(C)(C)CN)c4)n3)c2)ccn1 [Compound 49, 3-(1-amino-2-methylpropan-2-yl)-N-(2-((4-(3-(2-methoxypyridin-4-yl)phenyl)thiazol-2-yl)amino)-2-oxoethyl)benzamide]	>80	0.1 to 1	> 5	> 60
CC(C)(CN)c1cccc(C(=O)NCC(=O)Nc2nc(-c3cccc(-c4cc(Cl)cc(Cl)c4)c3)cs2)c1 [Compound 51, 3-(1-amino-2-methylpropan-2-yl)-N-(2-((4-(3′,5′-dichloro-[1,1′-biphenyl]-3-yl)thiazol-2-yl)amino)-2-oxoethyl)benzamide]	>80	0.1 to 1	> 5	> 50
CC(=O)N(C)c1cc(-c2cccc(-c3csc(NC(=O)CNC(=O)c4cccc(C(C)(C)CN)c4)n3)c2)ccn1 [Compound 56, 3-(1-amino-2-methylpropan-2-yl)-N-(2-((4-(3-(2-(N-methylacetamido)pyridin-4-yl)phenyl)thiazol-2-yl)amino)-2-oxoethyl)benzamide]	>90	0.1 to 1	1 to 5	> 70
CC(C)(CN)c1cccc(C(=O)NCC(=O)Nc2nc(-c3cccc(-c4ccnc(N)c4)c3)cs2)c1 [Compound 59, 3-(1-amino-2-methylpropan-2-yl)-N-(2-((4-(3-(2-aminopyridin-4-yl)phenyl)thiazol-2-yl)amino)-2-oxoethyl)benzamide]	>95	< 0.1	0.1 to 1	> 80
CC(C)(CN)c1cccc(C(=O)NCC(=O)Nc2nc(-c3cccc(-c4ccnc(CO)c4)c3)cs2)c1 [Compound 60, 3-(1-amino-2-methylpropan-2-yl)-N-(2-((4-(3-(2-(hydroxymethyl)pyridin-4-yl)phenyl)thiazol-2-yl)amino)-2-oxoethyl)benzamide]	>95	< 0.1	0.1 to 1	> 80
CN(C)Cc1cc(-c2cccc(-c3csc(NC(=O)CNC(=O)c4cccc(C(C)(C)CN)c4)n3)c2)ccn1 [Compound 61, 3-(1-amino-2-methylpropan-2-yl)-N-(2-((4-(3-(2-((dimethylamino)methyl)pyridin-4-yl)phenyl)thiazol-2-yl)amino)-2-oxoethyl)benzamide]	>90	0.1 to 1	1 to 5	> 60
Cc1cc(C(=O)NCC(=O)Nc2nc(-c3cccc(-c4ccncc4)c3)cs2)cc(C(C)(C)CN)c1 [Compound 63, 3-(1-amino-2-methylpropan-2-yl)-5-methyl-N-(2-oxo-2-((4-(3-(pyridin-4-yl)phenyl)thiazol-2-yl)amino)ethyl)benzamide]	>80	1 to 5	> 5	> 60
C[C@H](NC(=O)c1cccc(C(C)(C)CN)c1)C(=O)Nc1nc(-c2cccc(-c3ccncc3)c2)cs1 [Compound 65, (S)-3-(1-amino-2-methylpropan-2-yl)-N-(1-oxo-1-((4-(3-(pyridin-4-yl)phenyl)thiazol-2-yl)amino)propan-2-yl)benzamide]	>90	0.1 to 1	0.1 to 1	> 95

More lines, now with the values ahead:

BRM Max % Inhibition (BRM) [%]	IC50 (BRM) [µM]	IC50 (BRG-1) [µM]	Emax (BRG-1) [%]	SMILES
>95	0.1 to 1	1 to 5	> 90	CC(C)S(=O)(=O)c1cccc(C(=O)NCC(=O)Nc2nc(-c3cccc(-c4cccnc4)c3)cs2)c1 [Compound 39, 3-isopropylsulfonyl-N-[2-oxo-2-[[4-[3-(3-pyridyl)phenyl]thiazol-2-yl]amino]ethyl]benzamide]
>95	0.1 to 1	1 to 5	> 60	Cc1ccc(C(=O)NCC(=O)Nc2nc(-c3cccc(-c4ccn(C)n4)c3)cs2)cc1S(=O)(=O)C(C)C [Compound 46, 3-(isopropylsulfonyl)-4-methyl-N-(2-((4-(3-(1-methyl-1H-pyrazol-3-yl)phenyl)thiazol-2-yl)amino)-2-oxoethyl)benzamide]
>95	0.1 to 1	0.1 to 1	> 80	CSCC[C@H](NC(=O)c1cccc(C(C)(C)CN)c1)C(=O)Nc1nc(-c2cccc(-c3ccncc3)c2)cs1 [Compound 48, (S)-3-(1-amino-2-methylpropan-2-yl)-N-(4-(methylthio)-1-oxo-1-((4-(3-(pyridin-4-yl)phenyl)thiazol-2-yl)amino)butan-2-yl)benzamide]
>90	0.1 to 1	1 to 5	> 70	CC(C)(CN)c1cccc(C(=O)NCC(=O)Nc2nc(-c3cccc(-c4cc(C#N)cc(C#N)c4)c3)cs2)c1 [Compound 50, 3-(1-amino-2-methylpropan-2-yl)-N-(2-((4-(3′,5′-dicyano-[1,1′-biphenyl]-3-yl)thiazol-2-yl)amino)-2-oxoethyl)benzamide]
>80	0.1 to 1	1 to 5	> 70	CC(C)(CN)c1cccc(C(=O)NCC(=O)Nc2nc(-c3cccc(-c4cc(C#N)cc(CO)c4)c3)cs2)c1 [Compound 52, 3-(1-amino-2-methylpropan-2-yl)-N-(2-((4-(3′-cyano-5′-(hydroxymethyl)-[1,1′-biphenyl]-3-yl)thiazol-2-yl)amino)-2-oxoethyl)benzamide]
>90	0.1 to 1	1 to 5	> 70	CC(C)(CN)c1cccc(C(=O)NCC(=O)Nc2nc(-c3cccc(-c4cc(CO)cc(C(F)(F)F)c4)c3)cs2)c1 [Compound 53, 3-(1-amino-2-methylpropan-2-yl)-N-(2-((4-(3′-(hydroxymethyl)-5′-(trifluoromethyl)-[1,1′-biphenyl]-3-yl)thiazol-2-yl)amino)-2-oxoethyl)benzamide]
>80	1 to 5	1 to 5	> 50	CC(C)(CN)c1cccc(C(=O)NCC(=O)Nc2nc(-c3cccc(-c4cccc(Cl)c4)c3)cs2)c1 [Compound 54, 3-(1-amino-2-methylpropan-2-yl)-N-(2-((4-(3′-chloro-[1,1′-biphenyl]-3-yl)thiazol-2-yl)amino)-2-oxoethyl)benzamide]
>90	0.1 to 1	> 5	> 60	CC(C)(CN)c1cccc(C(=O)NCC(=O)Nc2nc(-c3cccc(-c4cccc(C#N)c4)c3)cs2)c1 [Compound 55, 3-(1-amino-2-methylpropan-2-yl)-N-(2-((4-(3′-cyano-[1,1′-biphenyl]-3-yl)thiazol-2-yl)amino)-2-oxoethyl)benzamide]
>95	< 0.1	0.1 to 1	> 80	CNc1cc(-c2cccc(-c3csc(NC(=O)CNC(=O)c4cccc(C(C)(C)CN)c4)n3)c2)ccn1 [Compound 57, 3-(1-amino-2-methylpropan-2-yl)-N-(2-((4-(3-(2-(methylamino)pyridin-4-yl)phenyl)thiazol-2-yl)amino)-2-oxoethyl)benzamide]
>80	0.1 to 1	1 to 5	> 60	CC(C)(CN)c1cccc(C(=O)NCC(=O)Nc2nc(-c3cccc(-c4ccnc(C(F)(F)F)c4)c3)cs2)c1 [Compound 58, 3-(1-amino-2-methylpropan-2-yl)-N-(2-oxo-2-((4-(3-(2-(trifluoromethyl)pyridin-4-yl)phenyl)thiazol-2-yl)amino)ethyl)benzamide]
>80	1 to 5	> 5	> 40	CC(C)(CN)c1cccc(C(=O)NCC(=O)Nc2nc(-c3cccc(CO[C@H]4CC[C@H](O)CC4)c3)cs2)c1 [Compound 62, 3-(1-amino-2-methylpropan-2-yl)-N-(2-((4-(3-((((1R,4R)-4-hydroxycyclohexyl)oxy)methyl)phenyl)thiazol-2-yl)amino)-2-oxoethyl)benzamide]
>95	0.1 to 1	1 to 5	> 80	CC(C)(CN)c1cccc(C(=O)NCC(=O)Nc2nc(-c3cccc(-c4ccncc4)c3)cs2)c1 [Compound 64, 3-(1-amino-2-methylpropan-2-yl)-N-(2-oxo-2-((4-(3-(pyridin-4-yl)phenyl)thiazol-2-yl)amino)ethyl)benzamide]
>95	< 0.1	0.1 to 1	> 90	Cc1cc(-c2cccc(-c3csc(NC(=O)CNC(=O)c4cccc(C(C)(C)CN)c4)n3)c2)cc(C)n1 [Compound 66, 3-(1-amino-2-methylpropan-2-yl)-N-(2-((4-(3-(2,6-dimethylpyridin-4-yl)phenyl)thiazol-2-yl)amino)-2-oxoethyl)benzamide]
>70	1 to 5	1 to 5	> 40	Cn1ccc2ccc(-c3csc(NC(=O)CNC(=O)c4cccc(C(C)(C)CN)c4)n3)cc2c1=O [Compound 67, 3-(1-amino-2-methylpropan-2-yl)-N-(2-((4-(2-methyl-1-oxo-1,2-dihydroisoquinolin-7-yl)thiazol-2-yl)amino)-2-oxoethyl)benzamide]
